Laboratory results published in US8383656B2, “Thiazolidinedione energy restriction-mimetic agents” (The Ohio State University Research Foundation, priority 2009, dated 2013).
Entries after “also recorded” stand apart in the source; their conditions may differ. Read-outs that look alike come from different tables or passages of the source.

Tests used:
tumor xenograft = experiment: Tumor xenograft growth and acute toxicity; conditions: in vivo
[1] = system: LNCaP prostate cancer cells; experiment: MTT cell viability assay, LNCaP cells; assay type: cell-based; conditions: Homo sapiens
Method: The compounds were tested for their ability to decrease LNCaP prostate cancer cell viability as measured by the 3-(4,5-dimethylthiazol-2-yl)-2,5-diphenyltetrazolium bromide) (MTT) assay.
(§3) Cell viability was determined using the 3-(4,5-dimethylthiazol-2-yl)-2,5-diphenyltetrazolium bromide) (MTT) assay. LNCaP and MCF-7 cells were seeded in 96-well plates (5000 cells/well) and incubated in their respective culture media supplemented with 10% FBS for 24 h. […] Drug-containing medium was then replaced with 1×MTT (0.5 mg/mL in RPMI 1640), followed by incubation at 37° C. for 2 h. After removal of medium, the reduced MTT dye was solubilized in 200 μL/well DMSO, and absorbances were measured at 570 nm.

[2] = system: human tumor cell lines of the cancer screening panel; experiment: NCI60 cell line screening; assay type: cell-based; conditions: 48 h, SRB; variety of cancer cell types
Method: The NCI60 screening method was carried out using the following methodology. The human tumor cell lines of the cancer screening panel were grown in RPMI 1640 medium containing 5% fetal bovine serum and 2 mM L-glutamine. The cells were then inoculated into 96 well microtiter plates in 100 μL at plating densities ranging from 5,000 to 40,000 cells/well depending on the doubling time of individual cell lines. After cell inoculation, the microtiter plates are incubated at 37° C., 5% CO2, 95% air and 100% relative humidity for 24 h prior to addition of the thiazolidinedione derivatives. […]
Following drug addition, the plates were incubated for an additional 48 h at 37° C., 5% CO2, 95% air, and 100% relative humidity. […] Bound stain is subsequently solubilized with 10 mM trizma base, and the absorbance was read on an automated plate reader at a wavelength of 515 nm. […] Using the seven absorbance measurements [time zero, (Tz), control growth, (C), and test growth in the presence of drug at the five concentration levels (Ti)], the percentage growth is calculated at each of the drug concentrations levels. Percentage growth inhibition is calculated as: [(Ti−Tz)/(C−Tz)]×100 for concentrations for which Ti>/=Tz [(Ti−Tz)/Tz]×100 for concentrations for which Ti<Tz.
Three dose response parameters were calculated for each experimental agent. […]

[3] = system: conversion of LC3-I to LC3-II in LNCaP cells; experiment: GFP-LC3 conversion (autophagy) in LNCaP cells; assay type: cell-based; conditions: 5 μM, GFP-LC3-transfected LNCaP cells
Method: (§1) Transfections were performed by electroporation using Nucleofector kit R of the Amaxa Nucleofector system (Amaxa Biosystems, Cologne, Germany). LNCaP cells were transfected with the following plasmids or siRNA: WT- and H363Y-Flag-Sirt1 (DN-Sirt1), WT- and K45R-Myc-AMPK (DN-AMPK), GFP-LC3, TSC2 shRNA, and DDIT3 siRNA (GADD153). […] For the fluorescent microscopic analysis, LNCaP cells transfected with the GFP-LC3 expression plasmid or with scrambled or TSC2 shRNA were treated as indicated for 36 h. After cells were fixed with 3.7% formaldehyde at room temperature for 20 min, nuclear counterstaining was performed using a 4,6-diamidino-2-phenylindole (DAPI)-containing mounting medium (Vector Laborotaries, Burlingame, Calif.) before examination. Images were observed using a Nikon microscope (Eclipse TE300).

[4] = system: MCF-7 breast cancer cells; experiment: MTT cell viability assay, MCF-7 cells; assay type: cell-based; conditions: Homo sapiens, MCF7, 72 h, 10% FBS-supplemented medium, read-out: IC50 in inhibiting the viability of MCF-7 breast cancer cells
Method: as §3

[5] = system: [3H]-2-DG uptake into LNCaP cells; experiment: Glucose uptake assay ([3H]-2-DG); assay type: cell-based; conditions: OSU-CG12 at 5 and 10 μM, resveratrol at 50 and 100 μM, P<0.05
Method: After washing cells with PBS, glucose uptake was initiated by addition of 1 mL of PBS containing 1 μCi/mL [^3H]-2-DG (Perkin Elmer, Waltham, Mass.) and […] nonradioactive 2-DG. After 5 min, glucose uptake was terminated by extensive washing with PBS, and cells were solubilized in 0.1% SDS buffer. Aliquots were taken for measurements of radioactivity using a scintillation counter LS6500 (Beckman).

[6] = system: β-TrCP, Sp1, and androgen receptor (AR) expression in PrECs; experiment: Western blot of β-TrCP, Sp1 and AR in PrECs; assay type: cell-based; conditions: escalating concentrations, 48 h
[7] = system: LPS-stimulated IL-6 production in THP-1 macrophages; experiment: ELISA of LPS-stimulated IL-6 production in THP-1 macrophages; assay type: cell-based, human; conditions: for first-tier screening result (AMPK/mTOR activation status and IL-6/IL-6 receptor signaling): LPS-stimulated THP-1 macrophages; for inhibition at 10 µM: read-out: inhibition of IL-6 production
Method: (§2) Cells and cell culture. THP-1 monocytic cells were purchased from the American Type Culture Collection (Rockville, Md.), and maintained with L-glutamine-containing RPMI 1640 supplemented with 10% fetal bovine serum (FBS), 0.25% glucose, 0.01% sodium pyruvate, 50 μM 2-mercaptoethanol, and 0.1 ml/ml penicillin/streptomycin/L-glutamine. Differentiation of THP-1 monocytes into macrophages was carried out by exposure to PMA (50 nM) in the aforementioned RPMI 1640 medium for 24 h. Colon-26 (C-26) adenocarcinoma cells were provided by a researcher at The Ohio State University. The C-26 cells were maintained in RPMI 1640 medium supplemented with 5% FBS and 1% penicillin/streptomycin.
ELISA. IL-6 release by differentiated THP-1 macrophages in response to 10 ng/ml of LPS was analyzed by using the IL-6 ELISA kit (Cayman Chemical Co.; Ann Arbor, Mich.) according to the manufacturer's instruction in triplicate. The effect of each test compound on LPS-stimulated IL-6 release is presented as percent inhibition and was calculated using the following formula: percentage inhibition=100%×{1−[(O.D. of sample−O.D. of control)/(O.D. of LPS−O.D. of control)]}.

[8] = system: Sirt1 gene expression in LNCaP cells; experiment: Time course of Sirt1 expression in LNCaP cells (Western blot/RT-PCR); assay type: cell-based; conditions: OSU-CG12 10 μM, 2-DG 10 mM
Method: Total RNA was isolated from drug-treated LNCaP cells using the RNeasy mini kit (Qiagen, Valencia, Calif.), and then reverse-transcribed to cDNA using the Omniscript RT Kit (Qiagen) according to manufacturer's instructions. PCR products were separated electrophoretically in 1% agarose gels and visualized by ethidium bromide staining.
as §1

[9] = system: AMPK in C-26 colon adenocarcinoma cells; experiment: Western blot of AMPK phosphorylation in C-26 cells; assay type: cell-based; conditions: dose- and time-dependent, 10% FBS-containing medium
Method: as §2
Western blotting. THP-1 cells were lysed in SDS-sample buffer after washing with iced-PBS buffer, and then heated at 95° C. for 20 minutes. Protein extracts were prepared using M-PER mammalian protein extraction reagent (Pierce, Rockford, Ill.), containing freshly added 1% phosphatase and protease inhibitor cocktails (Calbiochem). After centrifugation of lysates at 13000 g for 10 min, supernatants were collected, and the protein concentration in each sample was determined by protein assay (Bio-Rad). Protein extracts were then suspended in 2×SDS sample buffer, separated by electrophoresis in 10% SDS-polyacrylamide gels, and transferred to nitrocellulose membranes using a semidry transfer cell. […]

AMPK = experiment: Western blot of AMPK phosphorylation in LPS-treated THP-1 macrophages; assay type: cell-based, human; conditions: LPS-treated THP-1, 6 h; AICAR 0.5 mM
Method: Western blotting. THP-1 cells were lysed in SDS-sample buffer after washing with iced-PBS buffer, and then heated at 95° C. for 20 minutes. Protein extracts were prepared using M-PER mammalian protein extraction reagent (Pierce, Rockford, Ill.), containing freshly added 1% phosphatase and protease inhibitor cocktails (Calbiochem). After centrifugation of lysates at 13000 g for 10 min, supernatants were collected, and the protein concentration in each sample was determined by protein assay (Bio-Rad). Protein extracts were then suspended in 2×SDS sample buffer, separated by electrophoresis in 10% SDS-polyacrylamide gels, and transferred to nitrocellulose membranes using a semidry transfer cell. The transblotted membrane was washed twice with Tris-buffered saline containing 0.1% Tween-20 (TBST). After blocking with TBST containing 5% nonfat milk for 1 h, the membrane was incubated with primary antibodies: p172Thr-AMPK, AMPK, p705Tyr-STAT3 and STAT3 (Cell Signaling Technology; Beverly, Mass.); p389Thr-p70S6K and p70S6K (Santa Cruz Biotechnology; Santa Cruz, Calif.), each at 1:1,000 dilution in 1% TBST-nonfat milk at 4° C. overnight. After incubation with the primary antibody, the membrane was washed three times with TBST for a total of 30 min, followed by incubation with horseradish peroxidase-conjugated goat anti-mouse IgG (diluted 1:2500) for 1 h at room temperature. […]

Compound | acute toxicity (tumor xenograft) | suppression of tumor xenograft growth (tumor xenograft) | IC50 ([1]; LNCaP, MTT, 72 h, 10% FBS-supplemented medium, read-out: IC50 in inhibiting the viability of LNCaP prostate cancer cells) [µM] | IC50 ([1]; summary over LNCaP and MCF-7 cells, read-out: IC50 in suppressing cancer cell growth) [µM] | antitumor potency in NCI 60 cell line screening [2] | accumulation of LC3-II (autophagy marker) [3] | IC50 [4] [µM] | inhibition of glucose uptake [5] | expression levels of β-TrCP, Sp1, and AR in PrECs [6] | first-tier screening result (AMPK/mTOR activation status and IL-6/IL-6 receptor signaling) ([7]; 10 μM) | inhibition at 10 µM ([7]; Homo sapiens, THP-1, 6 h) [%] | duration of transient transcriptional activation of Sirt1 gene expression [8] [h] | p-AMPK level in C-26 colon adenocarcinoma cells [9] | potency in activating AMPK relative to AICAR (AMPK) | potency in blocking IL-6 release ([7]; 1 μM, 6 h, LPS-stimulated THP-1) | IC50 ([7]; Homo sapiens, THP-1, 6 h, 10% FBS-containing medium, read-out: IC50 for inhibition of LPS-stimulated IL-6 production) [µM] | inhibition at 10 µM ([7]; Homo sapiens, 10 μM, 6 h, LPS-stimulated THP-1) [%]
CC1(CN2C(=O)S/C(=C\c3ccc(O)c(C(F)(F)F)c3)C2=O)CCCCC1 [OSU-CG12, (Z)-5-(4-Hydroxy-3-trifluoromethyl-benzylidene)-3-(1-methyl-cyclohexylmethy)-thiazolidine-2-4-dione] | without incurring acute toxicity | effectiveness in suppressing tumor xenograft growth | 5.7 | 5 | significantly antitumor potency | time-dependent accumulation of LC3-II | 5 | significantly inhibit glucose uptake | unaltered expression levels | active | > 80 | 1 |  |  |  |  | 
CC1(CN2C(=O)S/C(=C\c3ccc(NS(=O)(=O)c4ccc([N+](=O)[O-])c(C(F)(F)F)c4)cc3)C2=O)CCCCC1 [Compound 53, N-{4-[3-(1-Methyl-cyclohexylmethyl)-2,4-dioxo-thiazolidin-5-ylidene-methyl]-phenyl}-4-nitro-3-trifluoromethyl-benzenesulfonamide] |  |  |  |  |  |  |  |  |  | active |  |  | robust increases in the p-AMPK level | two-orders-of-magnitude higher | optimal agent; also recorded: highest potency | ~1 | > 80
